{"source": "patent US9714245B2", "about": "“Carboline compounds usable in the treatment of neurodegenerative diseases” (ALZPROTECT, priority 2013, dated 2017)", "key": {"[1]": {"tested_on": "secreted Aβ1-40", "assay": "Aβ1-40 secretion by APP-transfected neuroblastoma cells (ELISA)", "format": "cell-based", "conditions": "Homo sapiens, Neuroblastoma cell; SKNSH-SYSY APPWT cells; concentration decreasing secreted Aβ1-40 to 50% of basal amount", "experimental": "Cell Cultures and Transfections to Test Activity on Aβ1-40 and Aβ1-42 Secretion\nHuman neuroblastoma cell line SKNSH-SYSY (ATCC® Catalog No. CRL-2266™), HEK (ATCC® CRL-1573™) and COS-1 (ATCC® CRL-1650™) cells were maintained in Dulbecco's modified Eagle medium (DMEM, GIBCO BRL) supplemented with 10% fetal calf serum, 2 mM L-glutamine, 1 mM non-essential amino acids, 50 units/ml penicillin/streptomycin (Invitrogen, France) in a 5% CO2 humidified incubator at 37° C. APP695 cDNA was subcloned into eukaryotic expression vector pcDNA3 (Invitrogen), allowing for a G418 (Invitrogen) selection of clones. This APP cDNA coding for the 695 amino acid long isoform was transfected into SKNSH-SYSY cells using the ethyleneimine polymer ExGen 500 (Euromedex) according to the manufacturer's instructions. The cells expressing APP (SKNSH-SYSY APP^WT) were selected by the addition of 200 μg/ml G418 in the cell medium. To quantify AR which released in the cell culture medium, the collected medium was spun at 200×g to eliminate the cell debris. The concentrations of secreted Aâ1-40 and Aβ1-42 were determined using the Human Aβ (1-40) Assay Kit (IBL) or the INNOTEST™ beta-Amyloid (1-42) ELISA Kit (Innogenetics), according to manufacturer's instructions. The results were expressed as IC50, i.e. the concentration able to decrease to 50% the basal amount of secreted Aβ peptide 1-40 and 1-42."}, "[2]": {"tested_on": "AICD", "assay": "Quantification of AICD by Western blot in SY5Y-APPWT cells", "format": "cell-based, Human", "conditions": "compared to a control with a value of 100", "experimental": "(§1) Quantifications of APP-CTFs and AICD\n(§2) After treatment, SY5Y-APP^WT cells were scrapped and lysed in 1× Lysis Buffer (250 mM NaCl, 50 mM Tris, pH 8.8, 5 mM EDTA, 2.5% Triton X-100, 1% Deoxycholate, 0.1% SDS). For the Western blotting, an equal amount of total proteins (20 μg/lane) was loaded on a 16.5% Tris-Tricine or 8-16% Tris-Glycine polyacrylamide gel.\n(§3) SDS-polyacrylamide gel electrophoresis (PAGE) was performed using the Criterion™ Tris-Tricine-precast or Bis-Tris-precast criterion gels (Bio-Rad Bioresearch division). Proteins were transferred to a […] nitrocellulose membrane (Hybond, Amersham Biosciences) at 2.5 mA/cm2 per gel using the Criterion™ Blotter system (Amersham Biosciences), according to the manufacturer's instructions. Proteins were reversibly stained with Ponceau Red in order to check the quality of the transfer of protein. The membranes were blocked in 25 mM Tris-HCl pH 8.0, 150 mM NaCl, 0.1% Tween-20 (v/v) and 5% (w/v) of skimmed milk for 30 min. Membranes were incubated overnight at 4° C. with appropriate dilution of the primary antibodies, and were incubated for 1 h at room temperature with secondary antibody. […] Quantifications were calculated with Image J software (NIH) and the data were collected using Excel Software (Microsoft). The loading variations between Western blot lanes were normalized according to the tubulin signal. Quantification of CTFα and AICD were compared to control conditions (considered as 100 in arbitrary units) and are presented for two concentrations of the drug: 1 and 10 μM."}, "[3]": {"tested_on": "CTFα", "assay": "Quantification of APP-CTFα by Western blot in SY5Y-APPWT cells", "format": "cell-based, Human", "conditions": "compared to a control with a value of 100", "experimental": "as §1, §2, §3"}, "[4]": {"tested_on": "sAPPα", "assay": "Soluble APPα quantification (ELISA)", "format": "cell-based, Human", "conditions": "24 h, control considered as 100", "experimental": "Soluble APPα Quantification\nHuman neuroblastoma cell line SKNSH-SYSY APP′ was cultured in Dulbecco's modified Eagle medium (Invitrogen) supplemented with 10% fetal calf serum (PAA), 2 mM L-glutamine (Invitrogen), 1 mM non-essential amino acids (Invitrogen), 50 units/ml penicillin/streptomycin (Invitrogen), and 200 μg G418=geneticin (Invitrogen) (selection for cell expressing APP) in a 5% CO2 humidified incubator at 37° C. Cells were counted and seed at 400000 cells/well into a 12-wells plate for 24 h. The day after, cells were treated with 700 μL/well of drug at 0.3; 1; 3 and 10 μM and incubated for 24 h in a 5% CO2 incubator at 37° C. After treatment, culture medium samples were collected and stored at −80° C. until analysis. Samples corresponding to the 1 and 10 μM treatment were centrifuged 1500 rpm for 5 min at 4° C. sAPPα quantification by ELISA was done with Human sAPPα Assay Kit-IBL (Cat#27734) in accordance with manufacturer's protocol. Samples were diluted at 1:150 in the diluent buffer provided in the kit. Each sample was loaded in duplicate onto the 96 well-plate. Results are expressed in ng/ml and then compared to control conditions (considered as 100 in arbitrary units) and are presented for two concentrations of the drug: 1 and 10 μM."}, "[5]": {"tested_on": "CTFα", "assay": "In vivo acute treatment, CTFα in brain tissue", "design": "species or system C57Bl6 mice", "conditions": "acute p.o. 24 h", "experimental": "Female C57Bl6 mice of 4 month-old were treated p.o. (gavage) with either vehicle (control) or drug at 3; 6; 12.5 and 25 mg/kg (n=6 per group) for 24 h. The product was administered with a disposable Rodent Feeding Tube ECIMED Ref#V0104030 (4 mm×30 mm). After 24 h, mice were sacrificed and their troncal blood was collected and stored at 4° C. Brains were immediately removed to dissect the Frontal Cortex, the Cortex around the Hippocampus and the Hippocampus. These areas were stored at −80° C. until use. Blood was then centrifuged at 2100×g for 5 min. Resulting plasma was used to quantify the circulating drug and brain tissues were used for biochemical determinations (PFC: prefrontal cortex and HIP: hippocampus)."}}, "data": [{"compound": "CC(C)CN(CCCN1CCN(CCCN2CCc3[nH]c4ccc(F)cc4c3C2)CC1)CC(C)C", "note": "[Compound 3.1d, N,N-diisobutyl-3-(4-(3-(8-fluoro-1,3,4,5-tetrahydro-1H-pyrido[4,3-b]indol-2-yl)propyl)piperazin-1-yl)propylamine]", "values": [{"measurement": "IC50", "setting": "[1]", "result": 1200, "unit": "nM"}, {"measurement": "AICD (10 μM)", "setting": "[2]", "result": 84225, "unit": "arbitrary units"}, {"measurement": "CTFα (10 μM)", "setting": "[3]", "result": 1011, "unit": "arbitrary units"}, {"measurement": "sAPPα (10 μM)", "setting": "[4]", "result": 166, "unit": "arbitrary units"}, {"measurement": "HIP CTFα (6-12.5 mg/kg), first line", "setting": "[5]; hippocampus, 6 mg/kg (first of the two doses in the head)", "result": 110}, {"measurement": "HIP CTFα (6-12.5 mg/kg), second line", "setting": "[5]; hippocampus, 12.5 mg/kg (second of the two doses in the head)", "result": 115}, {"measurement": "PFC CTFα (6-12.5 mg/kg), first line", "setting": "[5]; prefrontal cortex, 6 mg/kg (first of the two doses in the head)", "result": 90}, {"measurement": "PFC CTFα (6-12.5 mg/kg), second line", "setting": "[5]; prefrontal cortex, 12.5 mg/kg (second of the two doses in the head)", "result": 90}]}]}
